Assay [1] deals with potatoes grown in plots infested with Globodera pallida. The assay can be described thus: Field trial 2013: potato yield with isolated bioactives in plots infested with Globodera pallida. The class given is in vivo, Solanum tuberosum. Conditions: 2013, average yield per drill (2.59 m^2). The text has this: Differences in efficacy achieved with Composition 1 and Composition 2 in field trials between 2008-2012 pointed to a differential effect of bioactive levels within the two compositions (Example 1). Laboratory trials on grass species grown in the presence of Meloidogyne minor identified fucan (fucoidan) as one of the bioactives responsible for enhancing growth (Example 2). Despite lower levels of fucoidan, Composition 1 also achieved equivalent increases in root growth in the same trial as compared with the purified fucoidan. […] A field trial was undertaken in 2013 to further determine which bioactives or combinations of bioactives are responsible for conferring enhancements in total and marketable yield in nematode infested growth media. As in previous trials, the forms of glucan and fucan used were laminarin and fucoidan respectively.
Bioactives were isolated and stock solutions prepared to contain glucan alone, mannitol alone, glucan+mannitol, fucan+mannitol and glucan+fucan. The efficacy of the bioactive fractions were assessed in plots known to be infested with Globodera pallida. Treatments were fully randomized with plots of approximately 16 m^2 in area and 6 drills wide. Twelve tubers were planted per drill. One metre spacing was placed between blocks with two drills fallow between treatments. The dimensions of the drills were 0.7 meters wide and 3.7 meters in length. The cultivar Navan, (Solanum tuberosum L. ev. Navan) was planted and compositions applied by foliar spray at 50% post-emergence and at approximately seven day intervals thereafter. Foliar spray ceased once senescence was noticed. For each of the 5 treatments, a total of 621 g of bioactives was applied per Ha. A nematicidal treatment, Vydate, was applied at full rate as a separate treatment. Standard compound fertilizers and fungicides were applied at recommended rates and intervals. The crop was harvested in November. Total harvest weight and marketable yield (>35 mm category) was measured, with comparisons between bioactive treatments and nematicide made by means of One-Way ANOVA.

The test system of the next assay is Perennial ryegrass. The assay can be described thus: Pre-soaking seeds: early root growth. It counts as in vivo. Conditions: seeds pre-soaked 16 hours, 7 day period. How it is done: (§1) The effects of Composition 1 and fucoidan on Creeping bentgrass and Perennial ryegrass root growth were examined in the laboratory setting in the presence or absence of plant parasitic nematodes in 2010. Seeds were pre-soaked in test materials for 16 hours each and left to germinate on wet USGA sand at 16° C. Roots were analysed using WinRHIZO image analysis system, following a 7 day period to assess mean root length following applications (n=10 seedlings per treatment). Experiments were also undertaken to assess the efficacy of Composition 1 and fucoidan in enhancing root length in the presence or absence of plant pathogenic nematodes. Seedlings (×7 replication) were established in sand columns containing USGA specification sand and sprayed on a weekly basis with either Composition 1 or fucoidan. […] Fucoidan was applied at a rate equivalent to 600 g/Ha. Root knot nematodes of the species Meloidogyne minor were inoculated around the roots in week 1, as second stage juveniles. Roots were analysed using WinRHIZO image analysis system following a 25 days period.

Another assay has as its system Creeping bentgrass. The assay can be described thus: Pre-soaking seeds: early root growth. The class given is in vivo. As to conditions: seeds pre-soaked 16 hours, 7 day period, n = 10. How it is done:
as §1

Assay [2] relates to Perennial ryegrass, with or without Meloidogyne minor. Nature of the assay: Seedling root length in sand columns with or without Meloidogyne minor. As to conditions: weekly spray, 25 days, n = 7. The class given is in vivo. How it is done: as §1
In assay [3] the test system is Creeping bentgrass, with or without Meloidogyne minor. Described as above. The class given is in vivo. Conditions: weekly spray, 25 days, n = 7. The method, then: as §1
Where [4] appears, read: inoculation with Meloidogyne minor.
Where [5] appears, read: no inoculation with Meloidogyne minor.

Marks after values point to notes of the source that are not given here.

For `OC[C@@H](O)[C@@H](O)[C@H](O)[C@H](O)CO` [Mannitol-alone, mannitol], the “Total Weight (g)” value in assay [1] is 9652** g. Also, the “Marketable weight (g)” value in assay [1] (>35 mm) is reported as 9324* g. The “Marketable weight” value in assay [1] (>35 mm, listed as mannitol-alone) came out at 9324 g. Besides, the “Total Weight” value in assay [1] (listed as mannitol-alone) is listed as 9652 g.

Regarding fucoidan, the “Mean Root length (mm)” value with Perennial ryegrass (n = 10) is given as 48.9 ^b mm; with Perennial ryegrass (n = 10, listed as fucoidan), 48.9 mm; in the assay with Creeping bentgrass, 39.1 ^a mm. For the same compound, the “mean root length (mm), +Mm” value in assay [2] (setting [4]) was 102.2^b mm; in assay [3] (setting [4]) it was 20.2^b mm. Further, the entries for the “mean root length (mm), −Mm” value in assay [2] (setting [5]) and in assay [3] (setting [5]) were 129.2^c mm and 27.1^b mm, respectively.

On to laminarin [Glucan-alone], for which the “Total Weight” value in assay [1] is listed as 10524 g. In assay [1] (>35 mm), the “Marketable weight” value is listed as 10218 g.

Source of the values: US11582969B2, “Non-nematicidal composition and use thereof” (BioAtlantis Limited, priority 2013, dated 2023).
